Measured values taken from ChEMBL document CHEMBL1201862, “PubChem BioAssay data set” (2004).
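The compound was tested at five concentrations on cells cultured in 96-well plates, with a 48-hour exposure period. Here, GI50 denotes the concentration required for 50% inhibition of growth.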 The source made the active and inactive calls. Cut-off read from the data, not from the text of the source: active = GI50 up to about 1.1 µM and inactive = higher.

Columns and labels:
Assay in all cases: NCI-60 cell line screen, 48 h
K562 = test system: K562
786-0 = test system: 786-0
A549 = test system: A549
COLO 205 = test system: COLO 205
UACC-62 = test system: UACC-62
OVCAR-5 = test system: OVCAR-5
OVCAR-3 = test system: OVCAR-3
RXF 393 = test system: RXF 393
NCI-H460 = test system: NCI-H460
SN12C = test system: SN12C
SNB-75 = test system: SNB-75
PC-3 = test system: PC-3
MDA-MB-231 = test system: MDA-MB-231
M14 = test system: M14
SR = test system: SR
HCT-116 = test system: HCT-116
SNB-19 = test system: SNB-19
MOLT-4 = test system: MOLT-4
SK-MEL-28 = test system: SK-MEL-28
M19-MEL = test system: M19-MEL

Structure (SMILES)	GI50 (K562)	GI50 (786-0)	GI50 (A549)	GI50 (COLO 205)	GI50 (UACC-62)	GI50 (OVCAR-5)	GI50 (OVCAR-3)	GI50 (RXF 393)	GI50 (NCI-H460)	GI50 (SN12C)	GI50 (SNB-75)	GI50 (PC-3)	GI50 (MDA-MB-231)	GI50 (M14)	GI50 (SR)	GI50 (HCT-116)	GI50 (SNB-19)	GI50 (MOLT-4)	GI50 (SK-MEL-28)	GI50 (M19-MEL)
COc1ccnc2c1C(=O)c1nc3ccccc3c3ccnc-2c13	0.163 µM (active)	0.221 µM (active)	0.142 µM (active)	0.0796 µM (active)	0.136 µM (active)	0.52 µM (active)	0.0353 µM (active)	0.231 µM (active)	0.0232 µM (active)	0.112 µM (active)	0.04 µM (active)	0.141 µM (active)	0.21 µM (active)	0.0418 µM (active)	0.0343 µM (active)	0.0902 µM (active)	0.182 µM (active)	1.42 µM (inactive)	0.305 µM (active)	–
O=[N+]([O-])/C=C/c1ccc(Cl)cc1Cl	3.33 µM (inactive)	15.6 µM (inactive)	21 µM (inactive)	21.2 µM (inactive)	15.7 µM (inactive)	17.8 µM (inactive)	19.9 µM (inactive)	–	17.9 µM (inactive)	–	20.4 µM (inactive)	–	–	11.7 µM (inactive)	11.4 µM (inactive)	3.44 µM (inactive)	17.8 µM (inactive)	15.8 µM (inactive)	14.9 µM (inactive)	5.77 µM (inactive)
CCCc1nn(C)c(CCC(=O)N(Cc2ccccc2)Cc2ccccc2)c1CC	–	> 100 µM (inactive)	> 100 µM (inactive)	> 100 µM (inactive)	> 100 µM (inactive)	> 100 µM (inactive)	> 100 µM (inactive)	> 100 µM (inactive)	> 100 µM (inactive)	> 100 µM (inactive)	47 µM (inactive)	–	–	> 100 µM (inactive)	–	> 100 µM (inactive)	> 100 µM (inactive)	–	> 100 µM (inactive)	> 100 µM (inactive)
CCC12CCCN(Cc3ccccc3)C1c1c(n(C)c3ccccc13)C(C(=O)OC)C2 (stereo not given)	93.5 µM (inactive)	206 µM (inactive)	> 239 µM (inactive)	107 µM (inactive)	> 239 µM (inactive)	78.2 µM (inactive)	53.7 µM (inactive)	128 µM (inactive)	117 µM (inactive)	84.1 µM (inactive)	–	–	–	–	72.6 µM (inactive)	51.6 µM (inactive)	72.9 µM (inactive)	74.3 µM (inactive)	> 239 µM (inactive)	112 µM (inactive)
Cc1ccccc1C(C#N)/C(=N/NC(=O)C(=O)NN)C(=O)Nc1cccc(C(F)(F)F)c1 (stereo not given)	> 100 µM (inactive)	> 100 µM (inactive)	> 100 µM (inactive)	> 100 µM (inactive)	> 100 µM (inactive)	> 100 µM (inactive)	> 100 µM (inactive)	–	> 100 µM (inactive)	> 100 µM (inactive)	49.8 µM (inactive)	–	–	> 100 µM (inactive)	> 100 µM (inactive)	> 100 µM (inactive)	> 100 µM (inactive)	> 100 µM (inactive)	> 100 µM (inactive)	> 100 µM (inactive)
O=C1NC(c2ccccc2)(c2ccccc2)C(=O)N1CCCCCCN1C(=O)NC(c2ccccc2)(c2ccccc2)C1=O	52.8 µM (inactive)	12.6 µM (inactive)	21.2 µM (inactive)	> 100 µM (inactive)	57.7 µM (inactive)	> 100 µM (inactive)	83.2 µM (inactive)	–	> 100 µM (inactive)	58.1 µM (inactive)	4.79 µM (inactive)	–	–	53.8 µM (inactive)	–	–	12.2 µM (inactive)	> 100 µM (inactive)	11 µM (inactive)	> 100 µM (inactive)
O=C(N/C(=C\c1cccc([N+](=O)[O-])c1)c1nc2cc([N+](=O)[O-])ccc2[nH]1)c1ccccc1	25.1 µM (inactive)	36.1 µM (inactive)	26.8 µM (inactive)	35.6 µM (inactive)	19.7 µM (inactive)	73.3 µM (inactive)	40.6 µM (inactive)	12.8 µM (inactive)	–	39.4 µM (inactive)	–	–	–	38.9 µM (inactive)	17.1 µM (inactive)	–	45.4 µM (inactive)	12.2 µM (inactive)	36.9 µM (inactive)	40.7 µM (inactive)
FC(F)(F)c1ccc(/N=C/C=C(/Nc2ccc(C(F)(F)F)cc2)c2ccc(Cl)cc2)cc1	18.4 µM (inactive)	15.5 µM (inactive)	12.5 µM (inactive)	10.5 µM (inactive)	1.82 µM (inactive)	17.9 µM (inactive)	6.78 µM (inactive)	10.1 µM (inactive)	4.38 µM (inactive)	10.4 µM (inactive)	17.6 µM (inactive)	18 µM (inactive)	14.5 µM (inactive)	12.8 µM (inactive)	3.47 µM (inactive)	4.79 µM (inactive)	8.61 µM (inactive)	4.06 µM (inactive)	15.1 µM (inactive)	–
CCOC(=O)c1ccc(NCc2ccc3oc(=O)c(-c4ccccc4)nc3c2)cc1	22.5 µM (inactive)	34.5 µM (inactive)	68.5 µM (inactive)	23.2 µM (inactive)	> 100 µM (inactive)	> 100 µM (inactive)	18.7 µM (inactive)	8.36 µM (inactive)	> 100 µM (inactive)	> 100 µM (inactive)	9.48 µM (inactive)	45.2 µM (inactive)	64.7 µM (inactive)	31.3 µM (inactive)	34.9 µM (inactive)	29.8 µM (inactive)	> 100 µM (inactive)	15.1 µM (inactive)	30.7 µM (inactive)	–
CNS(=O)(=O)NNS(=O)(=O)c1ccc2ccccc2c1	> 100 µM (inactive)	> 100 µM (inactive)	> 100 µM (inactive)	> 100 µM (inactive)	> 100 µM (inactive)	> 100 µM (inactive)	> 100 µM (inactive)	–	40.2 µM (inactive)	> 100 µM (inactive)	> 100 µM (inactive)	–	–	> 100 µM (inactive)	80.2 µM (inactive)	> 100 µM (inactive)	> 100 µM (inactive)	> 100 µM (inactive)	> 100 µM (inactive)	> 100 µM (inactive)
COc1ccc(-c2cc(=O)c3c(O)cc(O)cc3o2)c(OC)c1OC	42.7 µM (inactive)	80 µM (inactive)	59.3 µM (inactive)	57.7 µM (inactive)	97.1 µM (inactive)	92.3 µM (inactive)	38.9 µM (inactive)	48.8 µM (inactive)	–	> 100 µM (inactive)	38.3 µM (inactive)	–	–	> 100 µM (inactive)	–	–	> 100 µM (inactive)	–	94.2 µM (inactive)	63 µM (inactive)
O=c1cc(-c2ccccc2)oc2cc(O)cc(O)c12 [CHRYSIN]	22.8 µM (inactive)	23.6 µM (inactive)	27 µM (inactive)	18.5 µM (inactive)	21.5 µM (inactive)	18.6 µM (inactive)	28.8 µM (inactive)	–	14.2 µM (inactive)	17.9 µM (inactive)	10.3 µM (inactive)	–	–	33 µM (inactive)	23 µM (inactive)	15.2 µM (inactive)	18.5 µM (inactive)	18.3 µM (inactive)	16.8 µM (inactive)	25.5 µM (inactive)
COc1cc([C@H]2Oc3c(OC)cc(CCCO)cc3[C@@H]2CO)ccc1O [DIHYDRODEHYDRODICONIFERY ALCOHOL]	> 100 µM (inactive)	> 100 µM (inactive)	> 100 µM (inactive)	> 100 µM (inactive)	55.3 µM (inactive)	> 100 µM (inactive)	> 100 µM (inactive)	> 100 µM (inactive)	> 100 µM (inactive)	> 100 µM (inactive)	44.9 µM (inactive)	> 100 µM (inactive)	27.2 µM (inactive)	> 100 µM (inactive)	> 100 µM (inactive)	> 100 µM (inactive)	> 100 µM (inactive)	51.6 µM (inactive)	> 100 µM (inactive)	–
C=C(CC)C(=O)c1ccc(OCC(=O)O)c(Cl)c1Cl [ETHACRYNIC ACID]	53 µM (inactive)	6.93 µM (inactive)	> 91.8 µM (inactive)	19 µM (inactive)	15.2 µM (inactive)	29.8 µM (inactive)	16.1 µM (inactive)	18.2 µM (inactive)	44.3 µM (inactive)	20 µM (inactive)	21.8 µM (inactive)	24.9 µM (inactive)	19.6 µM (inactive)	18.5 µM (inactive)	31.6 µM (inactive)	23.1 µM (inactive)	15.6 µM (inactive)	20.2 µM (inactive)	17.6 µM (inactive)	–
CCCCCC/C=C\CCCCCCCCCc1cccc(O)c1C(=O)O [GINKGOLIC ACID 17:1]	65.9 µM (inactive)	> 100 µM (inactive)	> 100 µM (inactive)	> 100 µM (inactive)	34 µM (inactive)	> 100 µM (inactive)	> 100 µM (inactive)	> 100 µM (inactive)	> 100 µM (inactive)	> 100 µM (inactive)	> 100 µM (inactive)	51.9 µM (inactive)	> 100 µM (inactive)	> 100 µM (inactive)	45.4 µM (inactive)	> 100 µM (inactive)	61.1 µM (inactive)	83.8 µM (inactive)	> 100 µM (inactive)	–
CCc1nc(N)nc(N)c1-c1ccc(Cl)cc1 [PYRIMETHAMINE]	0.542 µM (active)	4.59 µM (inactive)	1.47 µM (inactive)	18.9 µM (inactive)	4.72 µM (inactive)	> 60 µM (inactive)	32 µM (inactive)	> 76.4 µM (inactive)	2.79 µM (inactive)	3.33 µM (inactive)	44.9 µM (inactive)	6.5 µM (inactive)	9.25 µM (inactive)	5.71 µM (inactive)	4.24 µM (inactive)	6.14 µM (inactive)	32.8 µM (inactive)	4.84 µM (inactive)	> 66.7 µM (inactive)	–
